For `O=C(O)c1ccc(CCc2ccc(NC(=O)c3c(NC(=O)c4cccc(S(=O)(=O)N(C5CC5)[C@H]5CC[C@@H](C(=O)O)CC5)c4)sc4c3CCCC4)cc2)cc1` [Example 5, 4-{2-[4-({[2-({3-[(cis-4-carboxycyclohexyl)(cyclopropyl)sulfamoyl]benzoyl}amino)-4,5,6,7-tetrahydro-1-benzothiophen-3-yl]carbonyl}amino)phenyl]ethyl}benzoic acid], the melting point (as a rule, the temperature, or range, at which the solid turns liquid) was 186.8 °C.

The record behind these values is patent publication US8729068B2, “Tetrahydrobenzothiophene compound” (Astellas Pharma Inc., priority 2010, dated 2014).
